Source: patent publication US20230066011A1, “PYRROLOPYRIMIDINE DERIVATIVE, AND PHARMACEUTICAL COMPOSITION FOR PREVENTING OR TREATING PROTEIN KINASE-RELATED DISEASE COMPRISING SAME AS ACTIVE INGREDIENT” (VORONOI CO., LTD., priority 2019, published 2023)

How the values were obtained:
Type in all cases: biochemical
human GST-DYRK1A = target: T1, human GST-DYRK1A (Homo sapiens, UniProt Q13627); experiment: GST-DYRK1A enzyme inhibition, ADP-Glo kinase assay; conditions: ATP 10 μM, GST-DYRK1A full length, read-out: DYRK1 IC50
T1 construct: purified human GST-DYRK1A (full length, Thermo Scientifics) enzyme; purchased Thermo Scientifics
Procedure, shortened: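 Full-length human GST-DYRK1A (10 ng) with 10 μM ATP and specific substrate in 40 mM Tris-HCl pH 7.4, 20 mM MgCl2, 0.5 mg/mL BSA, 50 μM DTT, 1 h at 25 °C. ADP formation read by ADP-Glo luminescence relative to solvent control; IC50 from three data sets.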

human GST-CLK1 = target: T2, human GST-CLK1 (Homo sapiens, UniProt P49759); experiment: GST-CLK1 enzyme inhibition, ADP-Glo kinase assay; conditions: ATP 10 μM, GST-CLK1 129-end
T2 construct: purified human GST-CLK1 (129-end, SignalChem) enzyme; purchased SignalChem
T2 sequence (P49759 129-484 limits assumed): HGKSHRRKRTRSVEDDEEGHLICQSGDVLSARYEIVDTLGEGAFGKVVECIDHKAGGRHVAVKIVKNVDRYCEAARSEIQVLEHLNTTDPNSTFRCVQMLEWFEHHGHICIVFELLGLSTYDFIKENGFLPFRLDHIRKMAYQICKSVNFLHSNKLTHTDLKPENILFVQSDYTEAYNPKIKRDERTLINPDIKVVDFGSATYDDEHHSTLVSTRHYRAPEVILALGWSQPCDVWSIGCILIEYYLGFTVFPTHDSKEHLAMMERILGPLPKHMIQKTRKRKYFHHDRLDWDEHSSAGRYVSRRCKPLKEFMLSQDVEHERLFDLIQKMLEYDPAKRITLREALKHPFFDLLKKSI
Procedure, shortened: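 Human GST-CLK1 (129-end, 3 ng) reacted with substrate and 10 μM ATP for 1 h at 25° C in 40 mM Tris-HCl pH 7.4, 20 mM MgCl2, 0.5 mg/mL BSA, 50 μM DTT. ADP-Glo luminescence was normalised to solvent control; IC50 (nM) from 3 data sets.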

LRRK2 = LRRK2 (Homo sapiens, UniProt Q5S007); experiment: LRRK2 enzyme inhibition, ADP-Glo kinase assay; set-up: purchased Invitrogen PR8604B; conditions: ATP 10 μM
Sequence of LRRK2 (Q5S007 970-2527 limits assumed): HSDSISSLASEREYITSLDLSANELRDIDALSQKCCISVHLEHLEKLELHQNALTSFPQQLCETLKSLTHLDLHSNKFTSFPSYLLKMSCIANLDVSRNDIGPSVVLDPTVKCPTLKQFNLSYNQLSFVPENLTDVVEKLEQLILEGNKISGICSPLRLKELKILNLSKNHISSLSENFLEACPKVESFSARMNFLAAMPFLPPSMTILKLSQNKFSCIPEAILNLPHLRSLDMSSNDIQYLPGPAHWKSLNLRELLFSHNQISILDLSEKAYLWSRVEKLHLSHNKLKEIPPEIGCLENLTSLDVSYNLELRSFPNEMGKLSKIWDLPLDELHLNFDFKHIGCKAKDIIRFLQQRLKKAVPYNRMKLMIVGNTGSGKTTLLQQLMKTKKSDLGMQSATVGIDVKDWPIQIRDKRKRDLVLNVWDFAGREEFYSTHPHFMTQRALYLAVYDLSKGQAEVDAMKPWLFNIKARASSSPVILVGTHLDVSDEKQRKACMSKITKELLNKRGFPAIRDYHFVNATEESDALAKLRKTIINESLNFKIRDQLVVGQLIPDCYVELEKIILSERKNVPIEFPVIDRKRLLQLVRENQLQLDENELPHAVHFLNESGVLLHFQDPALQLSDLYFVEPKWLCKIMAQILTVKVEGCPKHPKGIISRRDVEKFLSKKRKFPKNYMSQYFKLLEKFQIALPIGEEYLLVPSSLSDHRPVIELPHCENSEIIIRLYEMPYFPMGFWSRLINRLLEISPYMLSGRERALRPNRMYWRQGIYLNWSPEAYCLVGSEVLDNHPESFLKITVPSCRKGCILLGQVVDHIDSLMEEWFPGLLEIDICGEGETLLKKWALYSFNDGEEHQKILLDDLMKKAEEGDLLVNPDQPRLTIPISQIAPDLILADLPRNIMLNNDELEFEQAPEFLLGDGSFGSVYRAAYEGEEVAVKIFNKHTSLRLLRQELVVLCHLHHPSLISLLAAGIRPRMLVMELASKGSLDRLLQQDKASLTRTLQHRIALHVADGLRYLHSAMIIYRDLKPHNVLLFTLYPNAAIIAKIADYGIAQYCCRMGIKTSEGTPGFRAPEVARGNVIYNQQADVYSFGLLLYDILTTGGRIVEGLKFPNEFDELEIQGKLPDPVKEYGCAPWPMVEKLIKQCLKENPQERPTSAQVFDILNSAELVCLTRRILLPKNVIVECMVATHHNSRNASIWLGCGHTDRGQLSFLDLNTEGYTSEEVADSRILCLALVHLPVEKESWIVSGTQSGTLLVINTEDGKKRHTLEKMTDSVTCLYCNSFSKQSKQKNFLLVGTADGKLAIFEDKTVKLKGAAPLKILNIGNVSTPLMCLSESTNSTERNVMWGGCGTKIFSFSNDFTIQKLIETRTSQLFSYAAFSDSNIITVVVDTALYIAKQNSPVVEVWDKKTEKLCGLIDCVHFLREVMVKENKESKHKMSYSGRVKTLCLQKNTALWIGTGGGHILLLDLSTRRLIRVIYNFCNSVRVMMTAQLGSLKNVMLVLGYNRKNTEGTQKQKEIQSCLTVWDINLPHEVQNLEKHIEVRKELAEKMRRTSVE
Procedure: To evaluate an inhibitory activity of the compound according to the present invention against LRRK2, LRRK2 (G2019S), DYRK1, CLK1, and TTK kinases, experiments were performed as follows.
Each of the Example compounds was reacted with a purified human LRRK2 (Invitrogen #PR8604B) enzyme to evaluate an ability to inhibit an enzyme using a method as described below. A composition of 40 mM Tris-HCl (pH 7.4), 20 mM MgCl2, 0.5 mg/mL BSA, and 50 μM DTT was used as a reaction buffer, and all reactions of test substances were performed in the reaction buffer. Each of the compounds was diluted […] from a 10 mM DMSO stock using a serial dilution method, and enzyme activities were measured at final compound concentrations of 50, 10, 2, 0.4, 0.08, 0.016, 0.0032, 0.00064, 0.000128, 0.0000256, 0.00000512, and 0.000001024 μM. In the test, purified ATP (10 μM) and an enzyme substrate (0.2 μg) were reacted with a human LRRK2 (25 ng) enzyme at 25° C. for 2 hours, and the enzyme activities were determined using an in vitro ADP-Glo™ kinase assay (Promega). An enzyme-activity reaction solution, an ADP-Glo reaction solution, and an enzyme-ability detection solution were reacted at a ratio of 2:2:1 to measure a degree of inhibition of the enzyme activity with luminescence. The degree of inhibition of the enzyme activity according to the treatment concentration of each of the compounds was calculated based on the fluorescence of the enzyme activity of the solvent control which was not treated with the compound. In this case, the concentration of each of the compounds inhibiting 50% of the enzyme activity was determined to be an IC50 (nM) value, and calculated using Prism (Version 5.01; GraphPad) software.

Row | SMILES | IC50 (human GST-DYRK1A) [nM] | IC50 (human GST-CLK1) [nM] | IC50 (LRRK2) [nM]
1 | C=CCNc1nc(Nc2ccc(S(=O)(=O)N3CCOCC3)cc2OC)nc2[nH]cc(C(F)(F)F)c12 [Example 474, N^4-allyl-N^2-(2-methoxy-4-(morpholino-sulfonyl)phenyl)-5-(trifluoromethyl)-7H-pyrrolo[2,3-d]pyrimidine-2,4-diamine] | 301 to 1000 | 301 to 1000 | 301 to 1000
2 | CCCNc1nc(Nc2ccc(P3(=O)CCN(C4CC4)CC3)cc2OC)nc2[nH]cc(C(F)(F)F)c12 [Example 401, 1-cyclopropyl-4-(3-methoxy-4-((4-(propylamino)-5-(trifluoromethyl)-7H-pyrrolo[2,3-d]pyrimidin-2-yl)amino)phenyl)-1,4-azaphosphinane 4-oxide] | 301 to 1000 | 101 to 300 | < 100
3 | O=C(c1ccc(Nc2nc(NC3CCCCC3)c3c(C(F)(F)F)c[nH]c3n2)c2c1CCO2)N1CCC(N2CCOCC2)CC1 [Example 460, (7-((4-(cyclo-hexylamino)-5-(trifluoromethyl)-7H-pyrrolo[2,3-d]pyrimidin-2-yl)amino)-2,3-dihydrobenzo-furan-4-yl)(4-morpho-linopiperidin-1-yl)methanone] | 301 to 1000 | 301 to 1000 | < 100
4 | CC[C@@H](C)Nc1nc(Nc2ccc(S(C)(=O)=O)cc2OC)nc2[nH]cc(C(F)(F)F)c12 [Example 173, (R)-N^4-(sec-butyl)-N^2-(2-methoxy-4-(methyslulfonyl)phenyl)-5-(trifluoromethyl)-7H-pyrrolo[2,3-d]pyrimidine-2,4-diamine] | 301 to 1000 | 301 to 1000 | < 100
5 | CCNc1nc(Nc2ccc(C(=O)N3CCOCC3)c3c2OCO3)nc2[nH]cc(C#N)c12 [Example 277, 4-(ethylamino)-2-((7-(morpholine-4-carbonyl)benzo[d][1,3]dioxol-4-yl)amino)-7H-pyrrolo[2,3-d]pyrimidine-5-carbonitrile] | 301 to 1000 | 301 to 1000 | < 100
6 | COCCNc1nc(Nc2ccc(C(=O)N3CCC(N4CCOCC4)CC3)c3c2OCCO3)nc2[nH]cc(C#N)c12 [Example 256, 4-((2-methoxyethyl)amino)-2-((8-(4-morpholinopiperidine-1-carbonyl)-2,3-dihydrobenzo[b][1,4]dioxin-5-yl)amino)-7H-pyrrolo[2,3-d]pyrimidine-5-carbonitrile] | < 100 | < 100 | < 100
7 | N#Cc1c[nH]c2nc(Nc3ccc(C(=O)N4CCOCC4)c4c3OCCO4)nc(NCC3CCC3)c12 [Example 132, 4-((cyclobutylmethyl)amino)-2-((8-(morpholine-4-carbonyl)-2,3-dihydrobenzo[b][1,4]dioxin-5-yl)amino)-7H-pyrrolo[2,3-d]pyrimidine-5-carbonitrile] | 301 to 1000 | 301 to 1000 | < 100
8 | COc1cc(S(C)(=O)=O)ccc1Nc1nc(NCC2CCC2)c2c(C#N)c[nH]c2n1 [Example 112, 4-((cyclobutylmethyl)amino)-2-((2-methoxy-4-(methylsulfonyl)phenyl)amino)-7H-pyrrolo[2,3-d]pyrimidine-5-carbonitrile] | 301 to 1000 | 301 to 1000 | < 100
9 | CCNc1nc(Nc2ccc(C(=O)N3C[C@@H]4C[C@H]3CO4)c3c2OCCO3)nc2[nH]cc(C(F)(F)F)c12 [Example 409] | < 100 | < 100 | < 100
10 | CC(C)CNc1nc(Nc2ccc(C(=O)N3CCOCC3)c3c2OCCO3)nc2[nH]cc(C(F)(F)F)c12 [Example 169, (8-((4-(isobutylamino)-5-(trifluoromethyl)-7H-pyrrolo[2,3-d]pyrimidin-2-yl)amino)-2,3-dihydrobenzo[b][1,4]dioxin-5-yl)(morpholino)methanone] | 301 to 1000 | 301 to 1000 | < 100
11 | COCC(C)(C)Nc1nc(Nc2ccc(C(=O)N3CCOCC3)c3c2OCCO3)nc2[nH]cc(C#N)c12 [Example 131, 4-((1-methoxy-2-methylpropan-2-yl)amino)-2-((8-(morpholine-4-carbonyl)-2,3-dihydrobenzo[b][1,4]dioxin-5-yl)amino)-7H-pyrrolo[2,3-d]pyrimidine-5-carbonitrile] | 301 to 1000 | < 100 | < 100
12 | CC[C@H](C)Nc1nc(Nc2ccc(C(=O)N3CCC(N4CCOCC4)CC3)c3c2OCC3)nc2[nH]cc(C(F)(F)F)c12 [Example 452, (S)-(7-((4-(sec-butylamino)-5-(trifluoromethyl)-7H-pyrrolo[2,3-d]pyrimidin-2-yl)amino)-2,3-dihydrobenzo-furan-4-yl)(4-morpho-linopiperidin-1-yl)methanone] | 101 to 300 | < 100 | < 100
13 | COc1cc(P2(=O)CCN(C3CC3)CC2)ccc1Nc1nc(NC2CC2)c2c(C(F)(F)F)c[nH]c2n1 [Example 404, 1-cyclopropyl-4-(4-((4-(cyclo-propylamino) 5-(trifluoromethyl)-7H-pyrrolo[2,3-d]pyrimidin-2-yl)amino)3-methoxyphenyl)-1,4-azaphosphinane 4-oxide] | < 100 | < 100 | < 100
14 | CNc1nc(Nc2ccc(C(=O)N3CCOCC3)c3c2OCO3)nc2[nH]cc(C(F)(F)F)c12 [Example 214, (7-((4-(methylamino)-5-(trifluoromethyl)-7H-pyrrolo[2,3-d]pyrimidin-2-yl)amino)benzo[d][1,3]dioxol-4-yl)(morpholino)methanone] | < 100 | < 100 | < 100
15 | COc1cc(S(=O)(=O)N2CCC(N3CCOCC3)CC2)ccc1Nc1nc(NCC2CCC2)c2c(C#N)c[nH]c2n1 [Example 94, 4-((cyclobutylmethyl)amino)-2-((2-methoxy-4-((4-morpholinopiperidin-1-yl)sulfonyl)phenyl)amino)-7H-pyrrolo[2,3-d]pyrimidine-5-carbonitrile] | 301 to 1000 | 301 to 1000 | < 100
16 | CNc1nc(Nc2ccc(P3(=O)CCN(C4CCOCC4)CC3)cc2OC)nc2[nH]cc(C(F)(F)F)c12 [Example 436, 4-(3-methoxy-4-((4-(methylamino)-5-(trifluoromethyl)-7H-pyrrolo[2,3-d]pyrimidin-2-yl)amino)phenyl)-1-(tetrahydro-2H-pyran-4-yl)-1,4-azaphosphinane 4-oxide] | < 100 | < 100 | < 100
17 | O=C(c1ccc(Nc2nc(NCC3CCC3)c3c(C(F)(F)F)c[nH]c3n2)c2c1OCCO2)N1CCN(C2COC2)CC1 [Example 424, (8-((4-((cyclo-butylmethyl)amino)-5-(trifluoromethyl)-7H-pyrrolo[2,3-d]pyrimidin-2-yl)amino)-2,3-dihydrobenzo[b] [1,4]dioxin-5-yl) (4-(oxetan-3-yl)piperazin-1-yl)methanone] | 301 to 1000 | 301 to 1000 | < 100
18 | COCC(C)(C)Nc1nc(Nc2ccc(S(C)(=O)=O)cc2OC)nc2[nH]cc(C#N)c12 [Example 111, 4-((1-methoxy-2-methylpropan-2-yl)amino)-2-((2-methoxy-4-(methylsulfonyl)phenyl)amino)-7H-pyrrolo[2,3-d]pyrimdiine-5-carobnitrile] | 301 to 1000 | 301 to 1000 | < 100
19 | O=C(c1ccc(Nc2nc(NC3CCCC3)c3c(C(F)(F)F)c[nH]c3n2)c2c1OCCO2)N1CCOCC1 [Example 189, (8-((4-(cyclopentylamino)-5-(trifluoromethyl)-7H-pyrrolo[2,3-d]pyrimidin-2-yl)amino)-2,3-dihydrobenzo[b][1,4]dioxin-5-yl)(morpholino)methanone] | 101 to 300 | 101 to 300 | < 100
20 | CNc1nc(Nc2ccc(C(=O)N3CCC(N4CCOCC4)CC3)c3c2OCO3)nc2[nH]cc(C(F)(F)F)c12 [Example 215, (7-((4-(methylamino)-5-(trifluoromethyl)-7H-pyrrolo[2,3-d]pyrimidin-2-yl)amino)benzo[d][1,3]dioxol-4-yl)(4-morpholinopiperidin-1-yl)methanone] | 101 to 300 | 101 to 300 | < 100
